Measurements taken from ChEMBL document CHEMBL4765380, “Synthesis, structure and anticancer activity of new geldanamycin amine analogs containing C(17)- or C(20)- flexible and rigid arms as well as closed or open ansa-bridges” (Eur J Med Chem, 2020).

Key:
[1] = Selectivity index, ratio of IC50 for cytotoxicity against human HDF cells to IC50 for cytotoxicity against human PC-3 cells; type: toxicity, cell-based; conditions: HDF cells versus PC-3 cells, read-out: Ratio IC50
[2] = Cytotoxicity against human HDF cells assessed as reduction in cell growth incubated for 72 hrs by SRB assay; type: cell-based; conditions: HDFa
[3] = Selectivity index, ratio of IC50 for cytotoxicity against human HDF cells to IC50 for cytotoxicity against human SK-BR-3 cells; type: toxicity, cell-based; conditions: HDF cells versus SK-BR-3 cells, read-out: Ratio IC50
[4] = Binding affinity to HSP90 (unknown origin) assessed as dissociation constant by isothermal titration calorimetry; set-up: species or system Homo sapiens
U-87 MG = experiment: Antiproliferative activity against human U-87 MG cells assessed as reduction in cell growth incubated for 72 hrs by SRB assay; type: functional, cell-based, U-87MG ATCC
[5] = Selectivity index, ratio of IC50 for cytotoxicity against human HDF cells to IC50 for cytotoxicity against human A549 cells; type: toxicity, cell-based; conditions: HDF cells versus A549 cells, read-out: Ratio IC50
SK-BR-3 = experiment: Antiproliferative activity against human SK-BR-3 cells assessed as reduction in cell growth incubated for 72 hrs by SRB assay; type: functional, cell-based; conditions: SK-BR-3, 72 h
[6] = Selectivity index, ratio of IC50 for cytotoxicity against human HDF cells to IC50 for cytotoxicity against human U-87 MG cells; type: toxicity, cell-based; conditions: HDF cells versus U-87 MG cells, read-out: Ratio IC50
SK-OV-3 = experiment: Antiproliferative activity against human SK-OV-3 cells assessed as reduction in cell growth incubated for 72 hrs by SRB assay; type: functional, cell-based; conditions: SK-OV-3, 72 h
A549 = experiment: Antiproliferative activity against human A549 cells assessed as reduction in cell growth incubated for 72 hrs by SRB assay; type: functional, cell-based; conditions: A549, 72 h
[7] = Selectivity index, ratio of IC50 for cytotoxicity against human HDF cells to IC50 for cytotoxicity against human SK-OV-3 cells
[8] = Octanol/water partition coefficient, logP of compound incubated for 1 hr by UV-visible spectrophotometry; type: physicochemical
PC-3 = experiment: Antiproliferative activity against human PC-3 cells assessed as reduction in cell growth incubated for 72 hrs by SRB assay; type: functional, cell-based; conditions: PC-3, 72 h
[9] = Binding affinity to HSP90 (unknown origin); set-up: species or system Homo sapiens
[10] = Binding affinity to yeast HSP90 assessed as dissociation constant by isothermal titration calorimetry; set-up: species or system Saccharomyces cerevisiae

| SMILES | selectivity ratio [1] | IC50 [2] | selectivity ratio [3] | Kd [4] | IC50 (U-87 MG) | selectivity ratio [5] | IC50 (SK-BR-3) | selectivity ratio [6] | IC50 (SK-OV-3) | IC50 (A549) | Ratio IC50 [7] | logP at 1 h [8] | IC50 (PC-3) | Kd [9] | Kd [10] |
| --- | --- | --- | --- | --- | --- | --- | --- | --- | --- | --- | --- | --- | --- | --- | --- |
| CCOC(=O)C1CCC(CNC2=C3C[C@@H](C)C[C@H](OC)[C@H](O)[C@@H](C)/C=C(\C)[C@H](OC(N)=O)[C@@H](OC)/C=C\C=C(/C)C(=O)NC(=CC2=O)C3=O)CC1 (stereo not given in full) | 3.21 | 2.15 µM | 3.64 | 0.9 µM | 0.62 µM | 3.64 | 0.59 µM | 3.47 | 0.55 µM | 0.59 µM | 3.91 | 2.9 | 0.57 µM | – | – |
| CO[C@@H](C=CC=C(C)C(N)=O)[C@@H](OC(N)=O)/C(C)=C/[C@H](C)[C@@H](O)[C@H](C[C@H](C)CC1=C(NCCCCCCO)C(=O)C=C(NCCCCCCO)C1=O)OC | 1.48 | – | – | 183 µM | 11.4 µM | 1.57 | – | 1.52 | 11.9 µM | 11.1 µM | 1.47 | – | 11.7 µM | – | – |
| C=CCNC1=C2C[C@@H](C)C[C@H](OC)[C@H](O)[C@@H](C)/C=C(\C)[C@H](OC(N)=O)[C@@H](OC)/C=C\C=C(/C)C(=O)NC(=CC1=O)C2=O [TANESPIMYCIN] | – | 1.2 µM | 49 | – | > 10 µM | 52 | 0.038 µM | 51 | 0.22 µM | > 10 µM | – | – | 0.062 µM | 2.48 µM | – |
| CO[C@@H](C=CC=C(C)C(N)=O)[C@@H](OC(N)=O)/C(C)=C/[C@H](C)[C@@H](O)[C@H](C[C@H](C)CC1=C(NCCO)C(=O)C=C(NCCO)C1=O)OC | 2.72 | 4.84 µM | 2.33 | 134 µM | 2.04 µM | 2.03 | 2.08 µM | 3.42 | 2.66 µM | 2.38 µM | 1.82 | – | 2.13 µM | – | – |
| CO[C@H]1/C=C\C=C(/C)C(=O)NC2=CC(=O)C(NCC3COCCOCCOCCOCCOCCO3)=C(C[C@@H](C)C[C@H](OC)[C@H](O)[C@@H](C)/C=C(\C)[C@@H]1OC(N)=O)C2=O (stereo not given in full) | 6.78 | 4.07 µM | 5.73 | 1.19 µM | 0.84 µM | 3.73 | 0.71 µM | 4.85 | 0.66 µM | 1.09 µM | 6.17 | – | 0.6 µM | – | – |
| CCOC(=O)N1CCC(NC2=C3C[C@@H](C)C[C@H](OC)[C@H](O)[C@@H](C)/C=C(\C)[C@H](OC(N)=O)[C@@H](OC)/C=C\C=C(/C)C(=O)NC(=CC2=O)C3=O)CC1 | 4.69 | 5.39 µM | 3.41 | 0.89 µM | 1.09 µM | 4.77 | 1.58 µM | 4.94 | – | 1.13 µM | 3.96 | 2.39 | 1.15 µM | – | – |
| C#CCCN1CCC(NC2=C3C[C@@H](C)C[C@H](OC)[C@H](O)[C@@H](C)/C=C(\C)[C@H](OC(N)=O)[C@@H](OC)/C=C\C=C(/C)C(=O)NC(=CC2=O)C3=O)CC1 | 2.87 | 11.7 µM | 2.49 | 2.96 µM | 4.86 µM | 2.69 | 4.71 µM | 2.42 | 4.73 µM | 4.37 µM | 2.48 | – | 4.09 µM | – | – |
| CO[C@H]1/C=C\C=C(/C)C(=O)NC2=CC(=O)C(NC3CCN(C(=O)OC(C)(C)C)CC3)=C(C[C@@H](C)C[C@H](OC)[C@H](O)[C@@H](C)/C=C(\C)[C@@H]1OC(N)=O)C2=O | 13.4 | 2.55 µM | 33.1 | 0.82 µM | 0.084 µM | 33.1 | 0.077 µM | 30.4 | 0.083 µM | 0.077 µM | 30.7 | 3.11 | 0.19 µM | – | – |
| CO[C@H]1/C=C\C=C(/C)C(=O)NC2=CC(=O)C(NC3CCN(S(C)(=O)=O)CC3)=C(C[C@@H](C)C[C@H](OC)[C@H](O)[C@@H](C)/C=C(\C)[C@@H]1OC(N)=O)C2=O | 3.19 | 6.42 µM | 2.93 | – | 2.33 µM | 2.19 | 2.19 µM | 2.76 | 2.49 µM | 2.93 µM | 2.58 | – | 2.01 µM | – | – |
| CO[C@H]1/C=C\C=C(/C)C(=O)NC2=CC(=O)C(NCCCCO)=C(C[C@@H](C)C[C@H](OC)[C@H](O)[C@@H](C)/C=C(\C)[C@@H]1OC(N)=O)C2=O | 2.11 | 3.51 µM | 2.15 | – | 1.6 µM | 2.15 | 1.63 µM | 2.19 | 1.59 µM | 1.63 µM | 2.21 | – | 1.66 µM | – | – |
| CO[C@H]1/C=C\C=C(/C)C(=O)NC2=CC(=O)C(NCC3CCC(C(=O)O)CC3)=C(C[C@@H](C)C[C@H](OC)[C@H](O)[C@@H](C)/C=C(\C)[C@@H]1OC(N)=O)C2=O (stereo not given in full) | 3.12 | 7.37 µM | 2.82 | 0.94 µM | 2.81 µM | 2.53 | 2.61 µM | 2.52 | 2.79 µM | 2.91 µM | 2.64 | – | 2.36 µM | – | – |
| COCCOCCOCCNC1=C2C[C@@H](C)C[C@H](OC)[C@H](O)[C@@H](C)/C=C(\C)[C@H](OC(N)=O)[C@@H](OC)/C=C\C=C(/C)C(=O)NC(=CC1=O)C2=O | 3.42 | 2.77 µM | 2.98 | 1.37 µM | 0.79 µM | 3.04 | 0.93 µM | 3.51 | 0.74 µM | 0.91 µM | 3.74 | 2.02 | 0.81 µM | – | – |
| CCOC(=O)[C@@H](N)CCCCNC1=C2C[C@@H](C)C[C@H](OC)[C@H](O)[C@@H](C)/C=C(\C)[C@H](OC(N)=O)[C@@H](OC)/C=C\C=C(/C)C(=O)NC(=CC1=O)C2=O | 2.53 | 3.19 µM | 2.33 | – | 1.05 µM | 2.29 | 1.37 µM | 3.04 | 1.09 µM | 1.39 µM | 2.93 | – | 1.26 µM | – | – |
| CO[C@@H](/C=C/C=C(/C)C(N)=O)[C@@H](OC(N)=O)/C(C)=C/[C@H](C)[C@@H](O)[C@H](C[C@H](C)CC1=C(NCCCN2CCCC2)C(=O)C=C(NCCCN2CCCC2)C1=O)OC | 2.27 | 20.6 µM | 2.49 | – | 8.49 µM | 2.54 | 8.26 µM | 2.43 | 9.41 µM | 8.11 µM | 2.19 | – | 9.07 µM | – | – |
| COC1=C2C[C@@H](C)C[C@H](OC)[C@H](O)[C@@H](C)/C=C(\C)[C@H](OC(N)=O)[C@@H](OC)/C=C\C=C(/C)C(=O)NC(=CC1=O)C2=O [GELDANAMYCIN] | 2.92 | 2.13 µM | 2.45 | – | 0.81 µM | 2.15 | 0.87 µM | 2.62 | 0.94 µM | 0.99 µM | 2.27 | – | 0.73 µM | 10.5 µM | 1.22 µM |
